Measured values reported in ChEMBL document CHEMBL6074662, “Antibacterial, Antibiofilm, and Anti-inflammatory Effects of a Novel Thrombin-Derived Peptide in Sepsis Models: Insights into Underlying Mechanisms” (J Med Chem, 2024).
Activity calls are given as the source filed them. The rule behind the calls is not given here.

What was measured:
Acinetobacter baumannii [1] = assay: Antibacterial activity against carbapenem-resistant Acinetobacter baumannii NMS 1707 incubated for 24 hrs by CLSI based broth microdilution method; format: functional
Salmonella typhimurium = assay: Antibacterial activity against Salmonella typhimurium KCTC 1926 incubated for 24 hrs by CLSI based broth microdilution method; format: functional, Salmonella enterica subsp. enterica serovar Typhimurium; settings: Salmonella enterica
[2] = test system: Staphylococcus epidermidis; assay: Antibacterial activity against Staphylococcus epidermidis KCTC 1917 incubated for 24 hrs by CLSI based broth microdilution method; format: functional
Staphylococcus aureus [3] = assay: Synergistic antibacterial activity against methicillin-resistant Staphylococcus aureus CCARM 3089 assessed as fractional inhibitory concentration index by measuring ratio of MIC of compound in presence of Chloramphenicol to MIC to compound incubated for 24 hrs by broth microdilution method; format: functional
Enterococcus faecium = assay: Antibacterial activity against vancomycin-resistant Enterococcus faecium ATCC 51559 incubated for 24 hrs by CLSI based broth microdilution method; format: functional
Pseudomonas aeruginosa [4] = assay: Antibacterial activity against multidrug-resistant Pseudomonas aeruginosa CCARM 2095 incubated for 24 hrs by CLSI based broth microdilution method; format: functional
Pseudomonas aeruginosa [5] = assay: Synergistic antibacterial activity against multi-drug resistant Pseudomonas aeruginosa CCARM 2095 assessed as fractional inhibitory concentration index incubated for 24 hrs in presence of Oxacillin by broth microdilution method; format: functional
Staphylococcus aureus [6] = assay: Synergistic antibacterial activity against methicillin-resistant Staphylococcus aureus CCARM 3089 assessed as fractional inhibitory concentration index by measuring ratio of MIC of compound in presence of Oxacillin to MIC to compound incubated for 24 hrs by broth microdilution method; format: functional
Escherichia coli [7] = assay: Antibacterial activity against Escherichia coli KCTC 1682 incubated for 24 hrs in presence of MgCl2 by CLSI based broth microdilution method; format: functional
Staphylococcus aureus [8] = assay: Synergistic antibacterial activity against methicillin-resistant Staphylococcus aureus CCARM 3089 assessed as fractional inhibitory concentration index by measuring ratio of MIC of Chloramphenicol in presence of compound to MIC to Chloramphenicol incubated for 24 hrs by broth microdilution method; format: functional
Staphylococcus aureus [9] = assay: Synergistic antibacterial activity against methicillin-resistant Staphylococcus aureus CCARM 3089 assessed as fractional inhibitory concentration index by measuring ratio of MIC of Ciprofloxacin in presence of compound to MIC to Ciprofloxacin incubated for 24 hrs by broth microdilution method; format: functional
Pseudomonas aeruginosa [10] = assay: Synergistic antibacterial activity against multi-drug resistant Pseudomonas aeruginosa CCARM 2095 assessed as fractional inhibitory concentration index by measuring ratio of MIC of Oxacillin in presence of compound to MIC to Oxacillin incubated for 24 hrs by broth microdilution method; format: functional
Pseudomonas aeruginosa [11] = assay: Synergistic antibacterial activity against multi-drug resistant Pseudomonas aeruginosa CCARM 2095 assessed as fractional inhibitory concentration index by measuring ratio of MIC of compound in presence of Oxacillin to MIC to compound incubated for 24 hrs by broth microdilution method; format: functional
Escherichia coli [12] = assay: Induction of morphological change in Escherichia coli KCTC 1682 assessed as distorted irregular cells at MIC incubated for 4 hrs by SEM analysis; format: functional, organism-based
Staphylococcus aureus [13] = assay: Synergistic antibacterial activity against methicillin-resistant Staphylococcus aureus CCARM 3089 assessed as MIC of Ciprofloxacin incubated for 24 hrs by broth microdilution method; format: functional
Staphylococcus aureus [14] = assay: Synergistic antibacterial activity against methicillin-resistant Staphylococcus aureus CCARM 3089 incubated for 24 hrs in presence of Ciprofloxacin by broth microdilution method; format: functional
[15] = Effect on secondary structure of drug in TFE assessed as fold increase in formation of alpha-helical conformation at 150 uM by CD analysis relative to HVF18; format: physicochemical
RAW264.7 [16] = assay: Anti-inflammatory activity in mouse RAW264.7 cells assessed as decrease in LPS-induced TNF-alpha level at 2.5 uM pretreated for 1 hr followed by LPS treatment for 16 hrs by ELISA relative to control; format: functional; settings: time 17 hrs
Escherichia coli [17] = assay: Induction of outer membrane permeabilization in Escherichia coli KCTC 1682 by NPN dye based analysis; format: functional, organism-based
Escherichia coli [18] = assay: Antibacterial activity against Escherichia coli KCTC 1682 incubated for 24 hrs in presence of NH4Cl by CLSI based broth microdilution method; format: functional
Pseudomonas aeruginosa [19] = assay: Synergistic antibacterial activity against multi-drug resistant Pseudomonas aeruginosa CCARM 2095 assessed as fractional inhibitory concentration index by measuring ratio of MIC of compound in presence of Chloramphenicol to MIC to compound incubated for 24 hrs by broth microdilution method; format: functional
Pseudomonas aeruginosa [20] = assay: Synergistic antibacterial activity against multi-drug resistant Pseudomonas aeruginosa CCARM 2095 assessed as MIC of Ciprofloxacin incubated for 24 hrs by broth microdilution method; format: functional
Staphylococcus aureus [21] = assay: Synergistic antibacterial activity against methicillin-resistant Staphylococcus aureus CCARM 3089 incubated for 24 hrs in presence of Chloramphenicol by broth microdilution method; format: functional
Pseudomonas aeruginosa [22] = assay: Anti-biofilm activity against multi-drug resistant Pseudomonas aeruginosa CCARM 2095 assessed as increase in red-stained dead cells at 32 uM incubated for 12 hrs by SYTO9/PI staining based analysis; format: functional, organism-based
Acinetobacter baumannii [23] = assay: Antibacterial activity against carbapenem-resistant Acinetobacter baumannii NMS 1915 incubated for 24 hrs by CLSI based broth microdilution method; format: functional
Staphylococcus aureus [24] = assay: Antibacterial activity against methicillin-resistant Staphylococcus aureus CCARM 3090 incubated for 24 hrs by CLSI based broth microdilution method; format: functional
Escherichia coli [25] = assay: Induction of cytoplasmic membrane depolarization in Escherichia coli KCTC 1682 at 0.5 times MIC measured for 500 secs by diSC3-5 dye based analysis relative to control; format: functional; settings: time 500 sec; 0.1389 h
RAW264.7 [26] = assay: Anti-inflammatory activity in mouse RAW264.7 cells assessed as decrease in LPS-induced TNF-alpha level at 5 uM pretreated for 1 hr followed by LPS treatment for 16 hrs by ELISA relative to control; format: functional; settings: time 17 hrs
[27] = Effect on secondary structure of drug in SDS assessed as fold increase in formation of alpha-helical conformation at 150 uM by CD analysis relative to HVF18; format: physicochemical
Escherichia coli [28] = assay: Antibacterial activity against Escherichia coli KCTC 1682 incubated for 24 hrs in presence of CaCl2 by CLSI based broth microdilution method; format: functional
Pseudomonas aeruginosa [29] = assay: Inhibition of biofilm formation in multi-drug resistant Pseudomonas aeruginosa CCARM 2095 at 4 to 8 uM by crystal violet staining based analysis relative to control; format: functional; settings: dose 4-8 µM
RAW264.7 [30] = assay: Anti-inflammatory activity in mouse RAW264.7 cells assessed as decrease in LPS-induced ROS production at 2.5 uM pretreated for 1 hr followed by LPS treatment for 16 hrs by DCFDA staining based analysis relative to control; format: functional; settings: time 17 hrs
Staphylococcus aureus [31] = assay: Synergistic antibacterial activity against methicillin-resistant Staphylococcus aureus CCARM 3089 assessed as fractional inhibitory concentration index by measuring ratio of MIC of Oxacillin in presence of compound to MIC to Oxacillin incubated for 24 hrs by broth microdilution method; format: functional
Escherichia coli [32] = assay: Antibacterial activity against Escherichia coli KCTC 1682 incubated for 24 hrs in presence of human serum by CLSI based broth microdilution method; format: functional
Escherichia coli [33] = assay: Antibacterial activity against Escherichia coli KCTC 1682 incubated for 24 hrs in presence of FeCl3 by CLSI based broth microdilution method; format: functional

| Substance | MIC (Acinetobacter baumannii [1]) | MIC (Salmonella typhimurium) | MIC [2] | FIC (Staphylococcus aureus [3]) | MIC (Enterococcus faecium) | MIC (Pseudomonas aeruginosa [4]) | fractional inhibitory concentration index (FICI) (Pseudomonas aeruginosa [5]) | FIC (Staphylococcus aureus [6]) | MIC (Escherichia coli [7]) | FIC (Staphylococcus aureus [8]) | FIC (Staphylococcus aureus [9]) | FIC (Pseudomonas aeruginosa [10]) | FIC (Pseudomonas aeruginosa [11]) | Activity (Escherichia coli [12]) | MIC (Staphylococcus aureus [13]) | MIC (Staphylococcus aureus [14]) | fold change (FC) [15] | inhibition at 2.5 µM (RAW264.7 [16]) | Activity (Escherichia coli [17]) | MIC (Escherichia coli [18]) | also measured |
| --- | --- | --- | --- | --- | --- | --- | --- | --- | --- | --- | --- | --- | --- | --- | --- | --- | --- | --- | --- | --- | --- |
| H-GVFRLKKWIKKVIKKWGK-NH2 | 4 µM | 4 µM | 8 µM | 0.25 | 8 µM | 8 µM | 0.281 | 0.063 | 32 µM | 0.25 | 0.5 | 0.031 | 0.25 | Active | 512 µM | 2 µM | ~ 5 | 2.6% | Dose-dependent-effect | 16 µM | FIC (Pseudomonas aeruginosa [19]): 0.25; MIC (Pseudomonas aeruginosa [20]): 128 µM; MIC (Staphylococcus aureus [21]): 2 µM; Activity (Pseudomonas aeruginosa [22]): Active; MIC (Acinetobacter baumannii [23]): 2 µM; MIC (Staphylococcus aureus [24]): 8 µM; Activity (Escherichia coli [25]): ~50%; inhibition at 5 µM (RAW264.7 [26]): 5.7%; fold change (FC) [27]: ~ 5; MIC (Escherichia coli [28]): 32 µM; inhibition (INH) (Pseudomonas aeruginosa [29]): >50%; inhibition at 2.5 µM (RAW264.7 [30]): 14.9%; FIC (Staphylococcus aureus [31]): 0.25; MIC (Escherichia coli [32]): 32 µM; MIC (Escherichia coli [33]): 32 µM |
| H-GVFRLKKWLKKVKKWGK-NH2 | 4 µM | 8 µM | 8 µM | 0.063 | 8 µM | 8 µM | 0.281 | 0.063 | 32 µM | 0.5 | 0.5 | 0.031 | 0.25 | Active | 512 µM | 4 µM | ~ 5 | 32.3% | Dose-dependent-effect | 16 µM | FIC (Pseudomonas aeruginosa [19]): 0.25; MIC (Pseudomonas aeruginosa [20]): 256 µM; MIC (Staphylococcus aureus [21]): 0.5 µM; Activity (Pseudomonas aeruginosa [22]): Active; MIC (Acinetobacter baumannii [23]): 4 µM; MIC (Staphylococcus aureus [24]): 8 µM; Activity (Escherichia coli [25]): ~50%; inhibition at 5 µM (RAW264.7 [26]): 78.1%; fold change (FC) [27]: ~ 5; MIC (Escherichia coli [28]): 16 µM; inhibition (INH) (Pseudomonas aeruginosa [29]): >50%; inhibition at 2.5 µM (RAW264.7 [30]): 38.2%; FIC (Staphylococcus aureus [31]): 0.25; MIC (Escherichia coli [32]): 32 µM; MIC (Escherichia coli [33]): 32 µM |
